According to patent US9328360B2, “Conversion of glycerol to 1,3-propanediol under haloalkaline conditions” (The Curators of the University of Missouri, priority 2013, dated 2016):

Tests used:
Assay type in all cases: cell-based, Halanaerobium hydrogeniformans
H. hydrogeniformans [1] = assay: Tolerance of H. hydrogeniformans to 1,3-propanediol (growth by turbidity); conditions: for Growth: 30 mM glycerol
Experimental: (§1) The tolerance of H. hydrogeniformans to increasing concentrations of 1,3-propanediol was examined. Anaerobic cultures were prepared in 160 mL serum bottles. The medium was prepared by boiling to degas under a N2 blanket. As the medium cooled, reductant stock mix was added to the media that contained 0.75 g Na2S and 0.6 g cysteine per liter. Once the media was cooled, the flasks were transferred into a Coy anaerobic glove bag where the 50 mL of media was dispensed into 160 mL serum bottles filled and autoclaved (121° C., 20 min). After autoclaving, the headspace gas was exchanged for 80% N2/20% CO2 mixture. The bottles then were inoculated with a 10% inoculum from previous stock cultures and amended with 30 mM glycerol. Sterilized 1,3-propanediol was added to the serum bottles to achieve 10, 30, 60, 120, 380, and 750 mM. Growth was examined by turbidity readings taken at […].

H. hydrogeniformans [2] = assay: Tolerance of H. hydrogeniformans to glycerol (growth by turbidity); conditions: 7% NaCl, pH 11
Experimental: as §1, with “to” for “to increasing”, “glycerol” for “1,3-propanediol”, “cultures.” for “cultures and amended with 30 mM glycerol.”, “7.5, 15,” for “10,”, “240, 480, 960,” for “380,”, “1920” for “750”

H. hydrogeniformans [3] = assay: Requirement of B12: 1,3-propanediol production from 30 mM glycerol over a vitamin B12 gradient (HPLC); conditions: for Percent mole/mole conversion of glycerol to 1,3-propanediol / 1,3-propanediol produced: 30 mM glycerol
Experimental: Anaerobic cultures were prepared in 160 mL serum bottles. The medium was prepared by boiling to degas under a N2 blanket. As the medium cooled, reductant stock mix was added to the media that contained 0.75 g Na2S and 0.6 g cysteine per liter. Once the media was cooled, the flasks were transferred into a Coy anaerobic glove bag where the 50 mL of media was dispensed into 160 mL serum bottles filled and autoclaved (121° C., 20 min). After autoclaving, the headspace gas was exchanged for 80% N2/20% CO2 mixture. The bottles then were inoculated with a 10% inoculum from previous stock cultures. 30 mM glycerol was added. Vitamin B12 supplementation from anaerobic, filter-sterilized stocks were added right before inoculation at 0 μg/L, 25 μg/L, 50 μg/L, 75 μg/L, and 100 μg/L.
Samples were taken every 24 hours. 5 mL syringes were degassed with N2/CO2 mix, and 1 mL of culture sample was removed for each of the sample periods. The sample was placed in a 1.5 mL Eppendorf tube, and centrifuged for 5 min at 13,000×g. The supernatant was decanted into another 1.5 mL Eppendorf tube, and frozen for HPLC analysis.
For HPLC analysis, filter sterilized samples ([…] PTFE filters) were injected onto a 300×7.8 mm Aminex HPX-87H column (BioRad, Hercules, Calif.) maintained at 50° C. The mobile phase was 2.5 mM H2SO4 maintained at a constant flow rate of 0.6 ml/min and at approximately 2.2 MPa. Detection was done with both a UV 231 (at 210 nm) and refractive index monitor.

Question: How did the Growth (H. hydrogeniformans [1]; 1,3-propanediol 10 mM) turn out when `OCCCO` [1,3-propanediol] was run?
Answer: capable of growth

Question: And the Growth (H. hydrogeniformans [1]; 1,3-propanediol 30 mM)?
Answer: capable of growth

Question: What about the Growth (H. hydrogeniformans [1]; 1,3-propanediol 60 mM) of the same compound?
Answer: capable of growth

Question: And the Growth (H. hydrogeniformans [1]; 1,3-propanediol 120 mM)?
Answer: capable of growth

Question: What about the Growth (H. hydrogeniformans [1]; 1,3-propanediol 380 mM) of the same compound?
Answer: capable of growth

Question: What about the “1,3-propanediol concentration at which growth is possible” value (H. hydrogeniformans [1]; 7% NaCl, pH 11) of the same compound?
Answer: 380 mM

Question: What about the “1,3-propanediol concentration tolerated” value (H. hydrogeniformans [1]; in addition to 7% (w/v) and pH 11) of the same compound?
Answer: at least 0.38 M

Question: Which results are given for `OCC(O)CO` [Glycerol, glycerol]?
Answer: Growth (H. hydrogeniformans [2]; Glycerol 7.5 mM): capable of growth; Growth (H. hydrogeniformans [2]; Glycerol 15 mM): capable of growth; Growth (H. hydrogeniformans [2]; Glycerol 30 mM): capable of growth; Growth (H. hydrogeniformans [2]; Glycerol 60 mM): capable of growth; Growth (H. hydrogeniformans [2]; Glycerol 120 mM): capable of growth; Growth (H. hydrogeniformans [2]; Glycerol 240 mM): capable of growth; Growth (H. hydrogeniformans [2]; Glycerol 480 mM): capable of growth; Growth (H. hydrogeniformans [2]; Glycerol 960 mM): capable of growth; Growth (H. hydrogeniformans [2]; Glycerol 1920 mM): capable of growth; Percent mole/mole conversion of glycerol to 1,3-propanediol (H. hydrogeniformans [3]; B12 amendment 0 μg/L): 31.5 % mol 1,3-propandiol/mol glycerol; conversion rate (H. hydrogeniformans [3]; absence of B12): 31%; 1,3-propanediol produced (H. hydrogeniformans [3]; no vitamin B12 provided): approximately 8.5 mM

Question: For vitamin B12, which “Percent mole/mole conversion of glycerol to 1,3-propanediol” value (shortened to “Percent mole/mole conversion of glycerol”) (H. hydrogeniformans [3]; B12 amendment 25 μg/L) is on record?
Answer: 59.1 % mol 1,3-propandiol/mol glycerol

Question: And the “Percent mole/mole conversion of glycerol” value (H. hydrogeniformans [3]; B12 amendment 50 μg/L)?
Answer: 60.3 % mol 1,3-propandiol/mol glycerol

Question: And the “Percent mole/mole conversion of glycerol” value (H. hydrogeniformans [3]; B12 amendment 75 μg/L)?
Answer: 60.1 % mol 1,3-propandiol/mol glycerol

Question: What about the “Percent mole/mole conversion of glycerol” value (H. hydrogeniformans [3]; B12 amendment 100 μg/L) of the same compound?
Answer: 60.2 % mol 1,3-propandiol/mol glycerol

Question: And the conversion rate (H. hydrogeniformans [3]; B12 supplementation >25 μg/L)?
Answer: approximately 60%

Question: What about the “1,3-propanediol produced” value (H. hydrogeniformans [3]; culture amended with 25, 50, 75, or 100 μg/L vitamin B12) of the same compound?
Answer: Approximately 16.5 mM
